SMILES strings stand for the structures. The source made the active and inactive calls. No cut-off for these calls is given here.

The text below walks through data of ChEMBL document CHEMBL4038307, “Influence of a Basic Side Chain on the Properties of Hypoxia-Selective Nitro Analogues of the Duocarmycins: Demonstration of Substantial Anticancer Activity in Combination with Irradiation or Chemotherapy” (J Med Chem, 2017).

The subject of assay [1] is HT-29. As to the kind of experiment: Cytotoxicity against human HT-29 cells incubated for 4 hrs under hypoxic condition measured after 5 days by SRB assay. It counts as functional, cell-based. A general note: The SRB assay estimates cell density from bound dye.
Assay [2] has as its system SiHa. In words: Ratio of IC50 for human SiHa cells under oxic condition to IC50 for human SiHa cells under hypoxic condition. It counts as functional.
In assay [3] the test system is HT-29. As to the kind of experiment: Cytotoxicity against human HT-29 cells incubated for 4 hrs under oxic condition measured after 5 days by SRB assay. It counts as functional, cell-based.
Assay [4] has as its system SiHa. As to the kind of experiment: Cytotoxicity against human SiHa cells incubated for 4 hrs under oxic condition measured after 5 days by SRB assay. The format is functional, cell-based.
Assay [5] has as its system HT-29. In words: Ratio of IC50 for human HT-29 cells under oxic condition to IC50 for human HT-29 cells under hypoxic condition. It counts as functional.
For assay [6], the system named is SiHa. As to the kind of experiment: Cytotoxicity against human SiHa cells incubated for 4 hrs under hypoxic condition measured after 5 days by SRB assay. The format is functional, cell-based.
In assay [7] the test system is CWR22R. In words: Antitumor activity against human 22Rv1 cells xenografted in CD-1 Foxn1 nude mouse assessed as reduction in colony forming cells under hypoxic condition at 30 umol/kg, iv treated 5 mins after gamma irradiation measured after 18 hrs by excision assay. The format is functional, organism-based.
Assay [8] concerns NCI-H1299. As to the kind of experiment: Antitumor activity against human H1299 cells xenografted in CD-1 Foxn1 nude mouse assessed as reduction in colony forming cells at 75 umol/kg, iv treated 5 mins after gamma irradiation measured after 18 hrs by excision assay. The format is functional, organism-based. In general terms: In xenograft studies the graft and the host belong to different species.

Assay [9] has as its system SiHa. As to the kind of experiment: Antitumor activity against human SiHa cells xenografted in CD-1 Foxn1 nude mouse assessed as log reduction in colony forming cells under hypoxic condition at 42 umol/kg, iv treated 5 mins after gamma irradiation measured after 18 hrs by excision assay. The format is functional.
For assay [10], the system named is NCI-H460. As to the kind of experiment: Antitumor activity against human H460 cells xenografted in CD-1 Foxn1 nude mouse assessed as reduction in colony forming cells under hypoxic condition at 75 umol/kg, iv treated 5 mins after gamma irradiation measured after 18 hrs by excision assay. The format is functional, organism-based.
In assay [11] the test system is HCT-116. As to the kind of experiment: Antitumor activity against human HCT116 cells xenografted in CD-1 Foxn1 nude mouse assessed as reduction in colony forming cells at 56 umol/kg, iv treated 5 mins after gamma irradiation measured after 18 hrs by excision assay. The format is functional, organism-based.
Assay [12] has as its system NCI-H460. As to the kind of experiment: Antitumor activity against human H460 cells xenografted in CD-1 Foxn1 nude mouse assessed as reduction in colony forming cells under hypoxic condition at 13.3 umol/kg, iv treated 5 mins after gamma irradiation measured after 18 hrs by excision assay. The format is functional, organism-based.

On to `CN(C)CCCOc1ccc2[nH]c(C(=O)N3CC(CCl)c4c3cc(N)c3cc(S(=O)(=O)NCCO)ccc43)cc2c1` (stereo unspecified), for which the outcome in [1], in assay [3], in assay [4] and in [6] was Active. The “Ratio IC50” value in assay [2] and in [5] was 1 in each case.

Take `CN(C)CCC(=O)Nc1ccc2[nH]c(C(=O)N3CC(CCl)c4c3cc(N)c3cc(S(=O)(=O)NCCO)ccc43)cc2c1` (stereo unspecified): the outcome in [1], in assay [3], in assay [4] and in [6] was Active. The “Ratio IC50” value in assay [2] and in [5] was 1 in each case.

For `CN(C)CCOc1ccc2[nH]c(C(=O)N3CC(CCl)c4c3cc([N+](=O)[O-])c3cc(C(=O)NCCO)ccc43)cc2c1` (stereo unspecified), the result in assay [1] and in [3] was Active.

For the molecule `Nc1cc2c(c3ccc(S(=O)(=O)NCCO)cc13)C(CCl)CN2C(=O)/C=C/c1ccc(OCCN2CCOCC2)cc1` (stereo unspecified), the result in [1], in [3], in assay [4] and in assay [6] was Active. Further, the “Ratio IC50” value in [2] and in assay [5] was 1 each time.

Consider `Nc1cc2c(c3ccc(S(=O)(=O)NCCO)cc13)C(CCl)CN2C(=O)CCN1CCOCC1` (stereo unspecified), for which the result in assay [1], in [3], in assay [4] and in [6] was Active. Also, the “Ratio IC50” value in assay [2] and in [5] was 1 in each case.

With `O=C(c1cc2cc(OCCN3CCOCC3)ccc2[nH]1)N1CC(CCl)c2c1cc([N+](=O)[O-])c1cc(S(=O)(=O)NCCO)ccc21` (stereo unspecified), the result in assay [1] and in [6] was inactive.

Regarding `O=C(c1cc2cc(OCCCN3CCOCC3)ccc2[nH]1)N1CC(CCl)c2c1cc([N+](=O)[O-])c1cc(S(=O)(=O)NCCOP(=O)(O)O)ccc21` (stereo unspecified), the result in [7], in assay [8], in [10] and in assay [11] was Active. For the same molecule, the Activity in assay [9] is recorded as >1.

Consider `Nc1cc2c(c3ccc(S(=O)(=O)NCCO)cc13)C(CCl)CN2C(=O)c1cc2cc(OCCCN3CCOCC3)ccc2[nH]1` (stereo unspecified), for which the result in [1], in assay [3], in [4] and in [6] was Active. Moreover, the “Ratio IC50” value in assay [2] and in assay [5] was 1 each time.

As to `CN(C)CCCOc1ccc2[nH]c(C(=O)N3CC(CCl)c4c3cc([N+](=O)[O-])c3cc(S(=O)(=O)NCCO)ccc43)cc2c1` (stereo unspecified), the “Ratio IC50” value in [2] and in assay [5] was 27 - 68 throughout.

As for `O=C(/C=C/c1ccc(OCCCN2CCOCC2)cc1)N1CC(CCl)c2c1cc([N+](=O)[O-])c1cc(S(=O)(=O)NCCOP(=O)(O)O)ccc21` (stereo unspecified), the outcome in assay [9] and in assay [10] was Active.

As for `COc1cc2cc(C(=O)N3CC(CCl)c4c3cc(N)c3cc(S(=O)(=O)NCCO)ccc43)[nH]c2c(OC)c1OC` (stereo unspecified), the result in assay [1], in [3], in assay [4] and in [6] was Active. In addition, the “Ratio IC50” value in [2] and in assay [5] was 1 in each case.

With `O=C(NCCOP(=O)(O)O)c1ccc2c3c(cc([N+](=O)[O-])c2c1)N(C(=O)c1cc2cc(OCCN4CCOCC4)ccc2[nH]1)CC3CCl` (stereo unspecified), the Activity in assay [9] is recorded as >1.

On to `CN(C)Cc1ccc2[nH]c(C(=O)N3CC(CCl)c4c3cc([N+](=O)[O-])c3cc(S(=O)(=O)NCCO)ccc43)cc2c1` (stereo unspecified), for which the “Ratio IC50” value in assay [2] and in [5] was 27 - 68 in each case.

In the case of `O=C(c1ccc(OCCN2CCOCC2)cc1)N1CC(CCl)c2c1cc([N+](=O)[O-])c1cc(S(=O)(=O)NCCOP(=O)(O)O)ccc21` (stereo unspecified), the outcome in [12] was inactive. Moreover, in assay [9], the result was Active.

In the case of `CN(C)CCCOc1ccc2[nH]c(C(=O)N3CC(CCl)c4c3cc([N+](=O)[O-])c3cc(S(=O)(=O)NCCOP(=O)(O)O)ccc43)cc2c1` (stereo unspecified), the outcome in [7], in [8] and in assay [11] was Active.

Regarding `Nc1cc2c(c3ccc(S(=O)(=O)NCCO)cc13)C(CCl)CN2C(=O)c1ccc(OCCN2CCOCC2)cc1` (stereo unspecified), the outcome in [1], in [3], in [4] and in assay [6] was Active. Further, the “Ratio IC50” value in assay [2] and in assay [5] was 1 each time.

Regarding `CCN(CC)CCOc1ccc2[nH]c(C(=O)N3CC(CCl)c4c3cc(N)c3cc(S(=O)(=O)NCCO)ccc43)cc2c1` (stereo unspecified), the result in assay [1], in [3], in [4] and in assay [6] was Active. In addition, the “Ratio IC50” value in assay [2] and in assay [5] was 1 in each case.

With `Nc1cc2c(c3ccc(S(=O)(=O)NCCO)cc13)C(CCl)CN2C(=O)/C=C/c1ccc(OCCCN2CCOCC2)cc1` (stereo unspecified), the result in assay [1], in [3], in [4] and in assay [6] was Active. Besides, the “Ratio IC50” value in assay [2] and in assay [5] was 1 throughout.

Consider `O=C(CCN1CCOCC1)N1CC(CCl)c2c1cc([N+](=O)[O-])c1cc(S(=O)(=O)NCCOP(=O)(O)O)ccc21` (stereo unspecified), for which, in assay [9], the outcome was Active. In addition, in [10], the outcome was inactive.

With `O=C(NCCOP(=O)(O)O)c1ccc2c3c(cc([N+](=O)[O-])c2c1)N(C(=O)/C=C/c1ccc(OCCN2CCOCC2)cc1)CC3CCl` (stereo unspecified), the result in [9] and in [10] was Active.

In the case of `Nc1cc2c(c3ccc(S(=O)(=O)NCCO)cc13)C(CCl)CN2C(=O)c1cc2cc(OCCN3CCOCC3)ccc2[nH]1` (stereo unspecified), the outcome in assay [1], in assay [3], in assay [4] and in assay [6] was Active. For the same molecule, the “Ratio IC50” value in assay [2] and in assay [5] was 1 in each case.

As for `CN(C)CCOc1ccc2[nH]c(C(=O)N3CC(CCl)c4c3cc(N)c3cc(S(=O)(=O)NCCO)ccc43)cc2c1` (stereo unspecified), the result in [1], in assay [3], in [4] and in assay [6] was Active. Further, the “Ratio IC50” value in assay [2] and in [5] was 1 throughout.

With `CN(C)Cc1ccc2[nH]c(C(=O)N3CC(CCl)c4c3cc([N+](=O)[O-])c3cc(S(=O)(=O)NCCOP(=O)(O)O)ccc43)cc2c1` (stereo unspecified), the result in [9] was Active. The outcome in assay [10] was inactive.

For `CCN(CC)CCOc1ccc2[nH]c(C(=O)N3CC(CCl)c4c3cc([N+](=O)[O-])c3cc(S(=O)(=O)NCCO)ccc43)cc2c1` (stereo unspecified), the “Ratio IC50” value in assay [2] and in assay [5] was 27 - 68 in each case.

Consider `CN(C)c1ccc2[nH]c(C(=O)N3CC(CCl)c4c3cc(N)c3cc(S(=O)(=O)NCCO)ccc43)cc2c1` (stereo unspecified), for which the outcome in [1], in [3], in [4] and in assay [6] was Active. The “Ratio IC50” value in assay [2] and in [5] was 1 each time.

Consider `O=C(c1cc2cc(OCCCN3CCOCC3)ccc2[nH]1)N1CC(CCl)c2c1cc([N+](=O)[O-])c1cc(S(=O)(=O)NCCO)ccc21` (stereo unspecified), for which the result in assay [1] and in [6] was inactive.

Consider `CN(C)CCOc1ccc2[nH]c(C(=O)N3CC(CCl)c4c3cc([N+](=O)[O-])c3cc(C(=O)NCCOP(=O)(O)O)ccc43)cc2c1` (stereo unspecified), for which the result in assay [7], in [8], in assay [9] and in assay [11] was Active.

Turning to `CN(C)Cc1ccc2[nH]c(C(=O)N3CC(CCl)c4c3cc(N)c3cc(S(=O)(=O)NCCO)ccc43)cc2c1` (stereo unspecified), the result in assay [1], in assay [3], in [4] and in [6] was Active. In addition, the “Ratio IC50” value in assay [2] and in [5] was 1 in each case.

With `CN(C)CC(=O)Nc1ccc2[nH]c(C(=O)N3CC(CCl)c4c3cc(N)c3cc(S(=O)(=O)NCCO)ccc43)cc2c1` (stereo unspecified), the outcome in assay [1], in assay [3], in [4] and in assay [6] was Active. The “Ratio IC50” value in assay [2] and in assay [5] was 1 in each case.

In the case of `CN(C)CCOc1ccc2[nH]c(C(=O)N3CC(CCl)c4c3cc([N+](=O)[O-])c3cc(S(=O)(=O)NCCO)ccc43)cc2c1` (stereo unspecified), the result in assay [1] and in [3] was Active.
